pIC50: −log10 of the molar value.
How the values were obtained:
Type in all cases: biochemical
[1] = target: T1, cGMP-dependent protein kinase 1 (PKG or PRKG1) (Homo sapiens, UniProt Q13976); test: fluorescence coupling (TR-FRET) enzymatic assay, PKG off-target control; conditions: 8 nM enzyme, 30 μM ATP, 50 nM Ulight-CREBTide, one hour room temperature
T1 construct: GST; purchased Carna BioSciences 01-142
T1 sequence (Q13976 1-686 isoform Q13976-2): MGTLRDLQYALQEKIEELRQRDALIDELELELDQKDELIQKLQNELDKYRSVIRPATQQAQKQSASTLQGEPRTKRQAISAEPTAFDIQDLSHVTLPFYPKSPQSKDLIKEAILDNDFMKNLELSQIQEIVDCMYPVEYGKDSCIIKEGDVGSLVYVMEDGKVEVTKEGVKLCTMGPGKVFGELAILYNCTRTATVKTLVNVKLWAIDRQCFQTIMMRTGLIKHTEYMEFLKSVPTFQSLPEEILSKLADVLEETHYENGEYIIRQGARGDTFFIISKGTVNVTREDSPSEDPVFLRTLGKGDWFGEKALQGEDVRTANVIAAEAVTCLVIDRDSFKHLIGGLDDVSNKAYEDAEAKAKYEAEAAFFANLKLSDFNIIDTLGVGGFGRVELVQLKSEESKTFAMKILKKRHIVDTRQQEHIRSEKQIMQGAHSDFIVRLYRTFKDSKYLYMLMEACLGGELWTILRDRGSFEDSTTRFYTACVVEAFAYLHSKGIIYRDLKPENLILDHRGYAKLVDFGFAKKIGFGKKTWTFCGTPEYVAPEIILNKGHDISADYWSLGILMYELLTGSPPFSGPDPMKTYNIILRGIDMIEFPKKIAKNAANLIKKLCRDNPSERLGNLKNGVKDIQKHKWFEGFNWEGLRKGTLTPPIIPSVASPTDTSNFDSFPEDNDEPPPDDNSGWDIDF
Protocol: (§1) Dose-response curves for compounds of the present invention were determined using a fluorescence coupling enzymatic assay using purified C-terminal truncated human ROCK1 catalytic domain (amino acids 1-477 of accession number NP_005397.1) fused to GST (Carna BioSciences, Catalog #01-109) and purified C-terminal truncated human ROCK2 enzyme kinase domain (amino acids 1-553 of accession number NP_004841.2) fused to GST BioSciences, Catalog #01-110). In addition, full length cGMP-dependent protein kinase 1 (PKG or PRKG1; amino acids 1-686 of accession number NP_006249.1) fused to GST (Carna BioSciences, Catalog #01-142), full length PKACα (PRKACA; amino acids 1-351 of accession number NP_002721.1) fused to GST (Carna BioSciences, Catalog #01-127), and C-terminal truncated human AKT1 catalytic domain (amino acids 104-480 of accession number NP_005154.1) fused to GST Biosciences, Catalog #01-101) were used as a control to measure any non-desired off-target kinase activity.
(§2) Briefly, compounds of the present invention were solubilized in DMSO and a series of 12, three-fold serial dilutions were made for each compound in 2.5% DMSO. The initial starting concentration for the serial dilutions of each compound was 10 μM or 100 μM. Control samples lacking compound, ROCK enzyme or ATP also were prepared and processed in parallel with compound test samples.
(§3) A 4 μL aliquot of each serial dilution of test compound diluted in H2O with 2.5% DMSO was added to a well containing 4 μL of 10 nM purified N-truncated ROCK1 (4 nM final concentration), 10 nM purified N-truncated ROCK2 enzyme (4 nM final concentration), 1.25 nM AKT1 (0.5 nM final concentration), 25 pM PKACA (10 pM final concentration) or 20 nM PKG (8 nM final concentration), in reaction buffer containing 50 mM Hepes, pH 7.5, 1 mM EGTA, 10 mM MgCl2, 2 mM DTT, and 0.01% Tween 20 (final concentration). To initiate the enzymatic reaction, 2 μL of a solution was added to each well to provide a final concentration of 50 nM Ulight-CREBTide peptide substrate (Perkin Elmer, Catalog #TRF0107) and 4 μM ATP for ROCK1 and AKT1 assays, […] for ROCK2 assays and 30 μM ATP for PKG assays, or 1 μM ATP for PKACA assays. The reaction mixtures were incubated at room temperature for one hour. After one hour, the reaction was stopped by the addition of a 10 solution of an Europium-labelled phospho-CREB (Ser133) antibody (Perkin Elmer, Catalog #TRF0200) in LANCE buffer supplemented with 20 mM EDTA. The stopped reaction mixtures were incubated at room temperature for 90 minutes. The TR-FRET 665/620 ratios were determined using a Clariostar monochromator plate reader instrument (BMG LabTech) in accordance with the manufacturer's instructions. The ICso value for each compound was determined from each dose-response curve using GraphPad Prism 7 software with a sigmodial dose response. Key: A is IC50≤100 nM; B is 100 nM<IC50<1000 nM; C is 1,000<IC50≤10,000 nM; D is IC50>10,000 nM

[2] = target: T2, human AKT1 catalytic domain (Homo sapiens, UniProt P31749); test: fluorescence coupling (TR-FRET) enzymatic assay, AKT1 off-target control; conditions: 0.5 nM enzyme, 4 μM ATP, 50 nM Ulight-CREBTide, one hour room temperature
T2 construct: GST; purchased Carna BioSciences 01-101
Protocol: as §1, §2, §3

PKACα (PRKACA) = target: T3, PKACα (PRKACA) (Homo sapiens, UniProt P17612); test: fluorescence coupling (TR-FRET) enzymatic assay, PKACA off-target control; conditions: 10 pM enzyme, 1 μM ATP, 50 nM Ulight-CREBTide, one hour room temperature
T3 construct: GST; purchased Carna BioSciences 01-127
Protocol: as §1, §2, §3

[3] = target: T4, human ROCK2 enzyme kinase domain (Homo sapiens, UniProt O75116); test: fluorescence coupling (TR-FRET) enzymatic assay, ROCK2; conditions: 4 nM enzyme, 50 nM Ulight-CREBTide, one hour room temperature
T4 construct: GST; purchased Carna BioSciences 01-110
Protocol: as §1, §2, §3

[4] = target: T5, human ROCK1 catalytic domain (Homo sapiens, UniProt Q13464); test: fluorescence coupling (TR-FRET) enzymatic assay, ROCK1; conditions: 4 nM enzyme, 4 μM ATP, 50 nM Ulight-CREBTide, one hour room temperature; read-out: ROCK1 IC50
T5 construct: GST; purchased Carna BioSciences 01-109
Protocol: as §2
The reaction mixtures were incubated at room temperature for one hour. After one hour, the reaction was stopped by the addition of a 10 solution of an Europium-labelled phospho-CREB (Ser133) antibody (Perkin Elmer, Catalog #TRF0200) in LANCE buffer supplemented with 20 mM EDTA. The stopped reaction mixtures were incubated at room temperature for 90 minutes. […] The ICso value for each compound was determined from each dose-response curve using GraphPad Prism 7 software with a sigmodial dose response.

T5 sequence (Q13464 1-477): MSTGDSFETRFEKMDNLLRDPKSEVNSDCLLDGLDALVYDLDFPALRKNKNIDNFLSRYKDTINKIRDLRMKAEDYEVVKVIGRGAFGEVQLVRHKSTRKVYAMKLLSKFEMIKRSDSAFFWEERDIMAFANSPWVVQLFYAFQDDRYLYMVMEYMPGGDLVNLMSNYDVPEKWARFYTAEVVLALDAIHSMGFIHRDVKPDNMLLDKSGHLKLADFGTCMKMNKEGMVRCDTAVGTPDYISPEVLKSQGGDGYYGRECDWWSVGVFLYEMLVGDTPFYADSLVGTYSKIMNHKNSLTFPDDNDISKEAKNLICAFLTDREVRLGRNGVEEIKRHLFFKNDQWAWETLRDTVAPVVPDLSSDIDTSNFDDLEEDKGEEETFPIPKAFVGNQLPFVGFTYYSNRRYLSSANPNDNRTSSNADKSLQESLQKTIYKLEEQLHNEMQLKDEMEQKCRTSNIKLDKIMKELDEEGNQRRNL
T4 sequence (O75116 1-553): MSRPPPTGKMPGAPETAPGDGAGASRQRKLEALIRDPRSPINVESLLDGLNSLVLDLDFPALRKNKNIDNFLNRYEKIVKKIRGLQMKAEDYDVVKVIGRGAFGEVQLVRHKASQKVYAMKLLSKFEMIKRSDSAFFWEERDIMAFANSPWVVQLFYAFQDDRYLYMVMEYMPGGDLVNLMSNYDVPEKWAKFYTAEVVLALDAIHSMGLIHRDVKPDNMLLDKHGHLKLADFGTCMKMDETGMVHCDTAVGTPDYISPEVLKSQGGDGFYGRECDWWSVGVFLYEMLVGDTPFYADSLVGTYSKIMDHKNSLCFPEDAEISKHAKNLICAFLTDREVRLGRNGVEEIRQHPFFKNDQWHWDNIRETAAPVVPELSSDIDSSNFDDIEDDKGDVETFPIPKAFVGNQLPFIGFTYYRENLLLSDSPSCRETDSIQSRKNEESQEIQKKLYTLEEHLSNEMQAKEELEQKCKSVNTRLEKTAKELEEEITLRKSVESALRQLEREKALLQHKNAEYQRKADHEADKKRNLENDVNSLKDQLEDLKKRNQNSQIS
T2 sequence (P31749 104-480): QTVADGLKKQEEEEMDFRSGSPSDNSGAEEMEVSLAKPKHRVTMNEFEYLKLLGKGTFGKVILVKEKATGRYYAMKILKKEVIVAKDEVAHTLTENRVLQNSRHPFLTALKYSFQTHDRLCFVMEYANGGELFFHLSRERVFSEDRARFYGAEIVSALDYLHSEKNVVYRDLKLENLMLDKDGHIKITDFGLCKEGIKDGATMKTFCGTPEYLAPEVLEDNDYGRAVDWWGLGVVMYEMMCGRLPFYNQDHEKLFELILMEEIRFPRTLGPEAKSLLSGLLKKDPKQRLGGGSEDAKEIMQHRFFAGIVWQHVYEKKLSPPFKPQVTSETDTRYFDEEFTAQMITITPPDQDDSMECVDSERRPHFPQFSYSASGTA

pIC50 [1] | pIC50 [2] | pIC50 (PKACα (PRKACA)) | pIC50 [3] | pIC50 [4] | SMILES
< 5.00 | < 5.00 | < 5.00 | 6.00 to 7.00 | 6.00 to 7.00 | CN(C)c1cc(C#N)cc2c1CCN2S(=O)(=O)c1cccc2c(=O)[nH]cc(Cl)c12 [Example 37, 1-((4-chloro-1-oxo-1,2-dihydroisoquinolin-5-yl)sulfonyl)-4-(dimethylamino)indoline-6-carbonitrile]
< 5.00 | < 5.00 | < 5.00 | 6.00 to 7.00 | 6.00 to 7.00 | N#Cc1cnc2c(c1)N(S(=O)(=O)c1cccc3c(=O)[nH]ccc13)CC2 [Example 38, 1-((1-oxo-1,2-dihydroisoquinolin-5-yl)sulfonyl)-2,3-dihydro-1H-pyrrolo[3,2-b]pyridine-6-carbonitrile]
< 5.00 | < 5.00 | < 5.00 | 6.00 to 7.00 | 6.00 to 7.00 | Cc1c[nH]c(=O)c2cccc(S(=O)(=O)N3CCc4ncc(C#N)cc43)c12 [Example 39, 1-((4-methyl-1-oxo-1,2-dihydroisoquinolin-5-yl)sulfonyl)-2,3-dihydro-1H-pyrrolo[3,2-b]pyridine-6-carbonitrile]
< 5.00 | < 5.00 | < 5.00 | > 7.00 | > 7.00 | N#Cc1cnc2c(c1)N(S(=O)(=O)c1cccc3c(=O)[nH]cc(Cl)c13)CC2 [Example 40, 1-((4-chloro-1-oxo-1,2-dihydroisoquinolin-5-yl)sulfonyl)-2,3-dihydro-1H-pyrrolo[3,2-b]pyridine-6-carbonitrile]
< 5.00 | < 5.00 | < 5.00 | 6.00 to 7.00 | 6.00 to 7.00 | CNc1cc(C#N)cc2c1CCN2S(=O)(=O)c1cccc2c(=O)[nH]cc(C)c12 [Example 41, 1-((4-methyl-1-oxo-1,2-dihydroisoquinolin-5-yl)sulfonyl)-4-(methylamino)indoline-6-carbonitrile]
< 5.00 | < 5.00 | < 5.00 | > 7.00 | 6.00 to 7.00 | CNc1cc(C#N)cc2c1CCN2S(=O)(=O)c1cccc2c(=O)[nH]cc(Cl)c12 [Example 42, 1-((4-chloro-1-oxo-1,2-dihydroisoquinolin-5-yl)sulfonyl)-4-(methylamino)indoline-6-carbonitrile]
< 5.00 | < 5.00 | < 5.00 | 6.00 to 7.00 | 5.00 to 6.00 | CCNc1cc(C#N)cc2c1CCN2S(=O)(=O)c1cccc2c(=O)[nH]cc(C)c12 [Example 43, 4-(ethylamino)-1-((4-methyl-1-oxo-1,2-dihydroisoquinolin-5-yl)sulfonyl)indoline-6-carbonitrile]
< 5.00 | < 5.00 | < 5.00 | 5.00 to 6.00 | 5.00 to 6.00 | CCNc1cc(C#N)cc2c1CCN2S(=O)(=O)c1cccc2c(=O)[nH]cc(Cl)c12 [Example 44, 1-((4-chloro-1-oxo-1,2-dihydroisoquinolin-5-yl)sulfonyl)-4-(ethylamino)indoline-6-carbonitrile]
5.00 to 6.00 | > 7.00 | 6.00 to 7.00 | > 7.00 | > 7.00 | Cc1c[nH]c(=O)c2cccc(S(=O)(=O)N3CCc4c(NCCN5C[C@H]6C[C@@H]5CO6)cc(C#N)cc43)c12 [Example 45]
